Experiments:
Type in all cases: in vivo
[1] = test system: pigweed (Amaranthus retroflexus); test: Preemergence herbicidal activity; conditions: scored after 3 weeks, 0 no injury, 100 complete kill or no germination
Protocol: (§1) The soil matrix was contained in plastic pots with a surface area of 161 square centimeters. When required to ensure good germination and healthy plants, a fungicide treatment and/or other chemical or physical treatment was applied. A weighed amount, determined by the highest rate to be tested, of each test compound was placed in a 20 mL glass vial and was dissolved in 8 mL of a 97:3 v/v (volume/volume) mixture of acetone and dimethyl sulfoxide to obtain concentrated stock solutions. […] The stock solutions obtained were diluted with a 99.9:0.1 mixture of water and Tween® 155 surfactant (ethoxylated sorbitan fatty acid ester) to obtain application solutions of known concentration. The solutions containing the highest concentration to be tested were prepared by diluting 4 mL aliquots of the stock solution with 8.5 mL of the mixture and lower concentrations were prepared by dilution of appropriate smaller portions of the stock solution. A 2.5 mL aliquot of each solution of known concentration was sprayed evenly onto the soil of each seeded pot using a Cornwall 5.0 mL glass syringe fitted with a TeeJet TN-3 hollow cone nozzle to obtain thorough coverage of the soil in each pot. Control pots were sprayed in the same manner with the aqueous mixture. A highest application rate of 4.48 kg/ha is achieved when 50 mg of test compound is employed. The treated pots and control pots were placed in a greenhouse with an approximately 15 hr photoperiod which was maintained at about 23-29° C. during the day and 22-28° C. during the night. Nutrients and water were added on a regular basis and supplemental lighting was provided with overhead metal halide 1000 Watt lamps as necessary. The water was added by top-irrigation. After 3 weeks the condition of the test plants that germinated and grew as compared with that of the untreated plants that germinated and grew was determined visually and scored on a scale of 0 to 100 percent where 0 corresponds to no injury and 100 corresponds to complete kill or no germination.

[2] = test system: cocklebur (Xanthium strumarium); test: Preemergence herbicidal activity; conditions: scored after 3 weeks, 0 no injury, 100 complete kill or no germination
Protocol: as §1

[3] = test system: blackgrass (Alopecurus myosuroides); test: Preemergence herbicidal activity; conditions: scored after 3 weeks, 0 no injury, 100 complete kill or no germination
Protocol: as §1

[4] = test system: barnyardgrass (Echinochloa crus-galli); test: Preemergence herbicidal activity; conditions: scored after 3 weeks, 0 no injury, 100 complete kill or no germination
Protocol: as §1

[5] = test system: giant foxtail (Setaria faberi); test: Preemergence herbicidal activity; conditions: scored after 3 weeks, 0 no injury, 100 complete kill or no germination
Protocol: as §1

[6] = test system: velvetleaf (Abutilion theophrasti); test: Preemergence herbicidal activity; conditions: scored after 3 weeks, 0 no injury, 100 complete kill or no germination
Protocol: as §1

wild oats (Avena fatua) [7] = test: Preemergence herbicidal activity; conditions: scored after 3 weeks, 0 no injury, 100 complete kill or no germination
Protocol: as §1

[8] = test system: morningglory (Ipomoea hederacea); test: Preemergence herbicidal activity; conditions: scored after 3 weeks, 0 no injury, 100 complete kill or no germination
Protocol: as §1

[9] = test system: wild poinsettia (Euphorbia heterophylla); test: Preemergence herbicidal activity; conditions: scored after 3 weeks, 0 no injury, 100 complete kill or no germination
Protocol: as §1

[10] = test system: lambsquarters (Chenopodium album); test: Preemergence herbicidal activity; conditions: scored after 3 weeks, 0 no injury, 100 complete kill or no germination
Protocol: as §1

[11] = test system: crabgrass (Digitaria sanguinalis); test: Preemergence herbicidal activity; conditions: scored after 3 weeks, 0 no injury, 100 complete kill or no germination
Protocol: as §1

[12] = test system: Rox orange sorghum (Sorghum bicolor); test: Preemergence herbicidal activity; conditions: scored after 3 weeks, 0 no injury, 100 complete kill or no germination
Protocol: as §1

[13] = test system: pigweed (Amaranthus retroflexus); test: Postemergence herbicidal activity; conditions: 62.5 ppm; scored after 2 weeks; 0 no injury, 100 complete kill
Protocol: (§2) Seeds of the desired test plant species were planted in Grace-Sierra MetroMix® 306 planting mixture, which typically has a pH of 6.0 to 6.8 and an organic matter content of about 30 percent, in plastic pots with a surface area of 64 square centimeters. When required to ensure good germination and healthy plants, a fungicide treatment and/or other chemical or physical treatment was applied. The plants were grown for 7-21 days in a greenhouse with an approximately 15 hr photoperiod which was maintained at about 23-29° C. during the day and 22-28° C. during the night. Nutrients and water were added on a regular basis and supplemental lighting was provided with overhead metal halide 1000 Watt lamps as necessary. The plants were employed for testing when they reached the first or second true leaf stage. A weighed amount of each test compound, determined by the highest rate to be tested, was placed in a 20 mL glass vial and was dissolved in 4 mL of a 97:3 v/v (volume/volume) mixture of acetone and dimethyl sulfoxide to obtain concentrated stock solutions. […] The concentrated stock solutions obtained were diluted with an aqueous mixture containing acetone, water, iso-propyl alcohol, dimethyl sulfoxide, Atplus 411F crop oil concentrate, and Triton X-155 surfactant (methylenebisdiamyl phenoxy polyethoxy ethanol) in a 48.5:39:10:1.5:1.0:0.02 v/v ratio to obtain spray solutions of known concentration. The solutions containing the highest concentration to be tested were prepared by diluting 2 mL aliquots of the stock solution with 13 mL of the mixture and lower concentrations were prepared by dilution of appropriate smaller portions of the stock solution. Approximately 1.5 mL aliquots of each solution of known concentration were sprayed evenly onto each of the test plant pots using a Devilbiss atomizer driven by compressed air pressure of 2 to 4 psi (140 to 280 kiloPascals) to obtain thorough coverage of each plant. Control plants were sprayed in the same manner with the aqueous mixture. In this test an application rate of 1 ppm results in the application of approximately 1 g/ha. The treated plants and control plants were placed in a greenhouse as described above and watered by sub-irrigation to prevent wash-off of the test compounds. After 2 weeks the condition of the test plants as compared with that of the untreated plants was determined visually and scored on a scale of 0 to 100 percent where 0 corresponds to no injury and 100 corresponds to complete kill.

[14] = test system: wild buckwheat (Polygonum convolvulus); test: Postemergence herbicidal activity; conditions: 62.5 ppm; scored after 2 weeks; 0 no injury, 100 complete kill
Protocol: as §2

[15] = test system: cocklebur (Xanthium strumarium); test: Postemergence herbicidal activity; conditions: 62.5 ppm; scored after 2 weeks; 0 no injury, 100 complete kill
Protocol: as §2

[16] = test system: blackgrass (Alopecurus myosuroides); test: Postemergence herbicidal activity; conditions: 62.5 ppm; scored after 2 weeks; 0 no injury, 100 complete kill
Protocol: as §2

[17] = test system: giant foxtail (Setaria faberi); test: Postemergence herbicidal activity; conditions: 62.5 ppm; scored after 2 weeks; 0 no injury, 100 complete kill
Protocol: as §2

[18] = test system: chickweed (Stellaria media); test: Postemergence herbicidal activity; conditions: 62.5 ppm; scored after 2 weeks; 0 no injury, 100 complete kill
Protocol: as §2

viola (Viola tricolor) = test: Postemergence herbicidal activity; conditions: 62.5 ppm; scored after 2 weeks; 0 no injury, 100 complete kill
Protocol: as §2

[19] = test system: velvetleaf (Abutilion theophrasti); test: Postemergence herbicidal activity; conditions: 62.5 ppm; scored after 2 weeks; 0 no injury, 100 complete kill
Protocol: as §2

wild oats (Avena fatua) [20] = test: Postemergence herbicidal activity; conditions: 62.5 ppm; scored after 2 weeks; 0 no injury, 100 complete kill
Protocol: as §2

[21] = test system: morningglory (Ipomoea hederacea); test: Postemergence herbicidal activity; conditions: 62.5 ppm; scored after 2 weeks; 0 no injury, 100 complete kill
Protocol: as §2

[22] = test system: lambsquarters (Chenopodium album); test: Postemergence herbicidal activity; conditions: 62.5 ppm; scored after 2 weeks; 0 no injury, 100 complete kill
Protocol: as §2

[23] = test system: Rox orange sorghum (Sorghum bicolor); test: Postemergence herbicidal activity; conditions: 62.5 ppm; scored after 2 weeks; 0 no injury, 100 complete kill
Protocol: as §2

**Q.** How did the “Preemergence herbicidal activity AMARE” value ([1]; 17.5 g/Ha) turn out when COc1cc(OC)n2nc(NS(=O)(=O)c3c(OC(C)C)cccc3C(F)(F)F)nc2n1 [Compound 11] was run?
**A.** The value was 100%.

**Q.** And the “Preemergence herbicidal activity XANST” value ([2]; 17.5 g/Ha)?
**A.** The value was 90%.

**Q.** And the “Preemergence herbicidal activity ALOMY” value ([3]; 17.5 g/Ha)?
**A.** The value was 100%.

**Q.** What about the “Preemergence herbicidal activity ECHCG” value ([4]; 17.5 g/Ha) of the same molecule?
**A.** The value was 100%.

**Q.** What about the “Preemergence herbicidal activity SETFA” value ([5]; 17.5 g/Ha) of the same molecule?
**A.** The value was 100%.

**Q.** And the “Preemergence herbicidal activity ABUTH” value ([6]; 17.5 g/Ha)?
**A.** Its value is 100%.

**Q.** And the “Preemergence herbicidal activity AVEFA” value (wild oats (Avena fatua) [7]; 17.5 g/Ha)?
**A.** Its value is 60%.

**Q.** What about the “Preemergence herbicidal activity IPOHE” value ([8]; 17.5 g/Ha) of the same molecule?
**A.** The value was 98%.

**Q.** What about the “Preemergence herbicidal activity EPHHL” value ([9]; 17.5 g/Ha) of the same molecule?
**A.** The value was 90%.

**Q.** What about the “Preemergence herbicidal activity CHEAL” value ([10]; 17.5 g/Ha) of the same molecule?
**A.** The value was 100%.

**Q.** What about the “Preemergence herbicidal activity DIGSA” value ([11]; 17.5 g/Ha) of the same molecule?
**A.** The value was 80%.

**Q.** And the “Preemergence herbicidal activity SORBI” value ([12]; 17.5 g/Ha)?
**A.** The value was 90%.

**Q.** What about the “Postemergence herbicidal activity AMARE” value [13] of the same molecule?
**A.** The value was 100%.

**Q.** What about the “Postemergence herbicidal activity POLCO” value [14] of the same molecule?
**A.** The value was 100%.

**Q.** What about the “Postemergence herbicidal activity XANST” value [15] of the same molecule?
**A.** Its value is 100%.

**Q.** And the “Postemergence herbicidal activity ALOMY” value [16]?
**A.** Its value is 60%.

**Q.** And the “Postemergence herbicidal activity SETFA” value [17]?
**A.** The value was 100%.

**Q.** What about the “Postemergence herbicidal activity STEME” value [18] of the same molecule?
**A.** Its value is 95%.

**Q.** What about the “Postemergence herbicidal activity VIOTR” value (viola (Viola tricolor)) of the same molecule?
**A.** Its value is 90%.

**Q.** What about the “Postemergence herbicidal activity ABUTH” value [19] of the same molecule?
**A.** The value was 100%.

**Q.** What about the “Postemergence herbicidal activity AVEFA” value (wild oats (Avena fatua) [20]) of the same molecule?
**A.** The value was 30%.

**Q.** And the “Postemergence herbicidal activity IPOHE” value [21]?
**A.** Its value is 80%.

**Q.** What about the “Postemergence herbicidal activity CHEAL” value [22] of the same molecule?
**A.** The value was 100%.

**Q.** What about the “Postemergence herbicidal activity SORBI” value [23] of the same molecule?
**A.** Its value is 50%.

**Q.** For CCc1ccc(OC)c(S(=O)(=O)Nc2nc3nc(OC)cc(OC)n3n2)c1 [Compound 9], which “Preemergence herbicidal activity AMARE” value ([1]; 70 g/Ha) is on record?
**A.** Its value is 40%.

**Q.** What about the “Preemergence herbicidal activity XANST” value ([2]; 70 g/Ha) of the same molecule?
**A.** The value was 0%.

**Q.** And the “Preemergence herbicidal activity ALOMY” value ([3]; 70 g/Ha)?
**A.** Its value is 0%.

**Q.** And the “Preemergence herbicidal activity ECHCG” value ([4]; 70 g/Ha)?
**A.** The value was 0%.

**Q.** What about the “Preemergence herbicidal activity SETFA” value ([5]; 70 g/Ha) of the same molecule?
**A.** Its value is 20%.

**Q.** What about the “Preemergence herbicidal activity ABUTH” value ([6]; 70 g/Ha) of the same molecule?
**A.** Its value is 20%.

**Q.** What about the “Preemergence herbicidal activity AVEFA” value (wild oats (Avena fatua) [7]; 70 g/Ha) of the same molecule?
**A.** The value was 0%.

**Q.** What about the “Preemergence herbicidal activity IPOHE” value ([8]; 70 g/Ha) of the same molecule?
**A.** The value was 30%.

**Q.** And the “Preemergence herbicidal activity EPHHL” value ([9]; 70 g/Ha)?
**A.** The value was 0%.

**Q.** And the “Preemergence herbicidal activity CHEAL” value ([10]; 70 g/Ha)?
**A.** The value was 30%.

**Q.** And the “Preemergence herbicidal activity DIGSA” value ([11]; 70 g/Ha)?
**A.** The value was 0%.

**Q.** And the “Preemergence herbicidal activity SORBI” value ([12]; 70 g/Ha)?
**A.** The value was 0%.

**Q.** What about the “Postemergence herbicidal activity AMARE” value [13] of the same molecule?
**A.** Its value is 70%.

**Q.** What about the “Postemergence herbicidal activity POLCO” value [14] of the same molecule?
**A.** The value was 50%.

**Q.** What about the “Postemergence herbicidal activity XANST” value [15] of the same molecule?
**A.** Its value is 70%.

**Q.** And the “Postemergence herbicidal activity SETFA” value [17]?
**A.** The value was 30%.

**Q.** What about the “Postemergence herbicidal activity STEME” value [18] of the same molecule?
**A.** The value was 50%.

**Q.** What about the “Postemergence herbicidal activity VIOTR” value (viola (Viola tricolor)) of the same molecule?
**A.** Its value is 50%.

**Q.** And the “Postemergence herbicidal activity ABUTH” value [19]?
**A.** The value was 30%.

**Q.** What about the “Postemergence herbicidal activity AVEFA” value (wild oats (Avena fatua) [20]) of the same molecule?
**A.** Its value is 20%.

**Q.** And the “Postemergence herbicidal activity IPOHE” value [21]?
**A.** The value was 10%.

**Q.** And the “Postemergence herbicidal activity CHEAL” value [22]?
**A.** The value was 80%.

**Q.** And the “Postemergence herbicidal activity SORBI” value [23]?
**A.** Its value is 30%.

— patent US6559101B2, “N- (5, 7-dimethoxy [1, 2, 4] triazolo [1, 5-a] pyrimidin-2-yl) arylsulfonamide compounds and their use as herbicides” (Dow AgroSciences LLC, priority 2000, dated 2003)
